Measurements from patent US20050222269A1, “Use of deprenyl compounds to treat viral infections and reduce tissue damage associated therewith” (priority 1998, published 2005).

How the values were obtained:
[1] = target: GAPDH (Homo sapiens, UniProt P04406); type: biochemical; conditions: gel filtration of GAPDH incubated with DMD
[2] = tested on: huBLCL/env cells; assay: CTL-mediated killing (51Cr release) of huBLCL/env cells expressing SIV env; type: cell-based, human; conditions: for Percent Specific Lysis: hu BLCL/env target cells, compound 1.0 nM added at beginning of 5 hour assay, 51Cr release
[3] = tested on: rh BLCL/env cells; assay: CTL-mediated killing (51Cr release) of rh BLCL/env cells expressing SIV env; type: cell-based, rhesus monkey; conditions: for Effect on CTL-mediated cell killing / lysis (in words): rh BLCL/env cells; for Percent Specific Lysis: rh BLCL/env target cells, compound 1.0 nM added at beginning of 5 hour assay, 51Cr release
[4] = tested on: Hela T4/env cells; assay: CTL-mediated killing (51Cr release) of Hela T4/env cells expressing SIV env; type: cell-based; conditions: for Effect on CTL-mediated cell killing / lysis (in words): Hela T4/env cells; for Percent Specific Lysis: Hela T4/env target cells, compound 1.0 nM added at beginning of 5 hour assay, 51Cr release
[5] = tested on: ClR/env cells; assay: CTL-mediated killing (51Cr release) of C1R/env cells expressing SIV env; type: cell-based, human; conditions: for Effect on CTL-mediated cell killing / lysis (in words): C1R/env cells; for Percent Specific Lysis: ClR/env target cells, compound 1.0 nM added at beginning of 5 hour assay, 51Cr release
[6] = Stability of deprenyl as a function of pH of the medium; type: physicochemical; conditions: pH about 3-5 versus pH about 7
Description: The stability of deprenyl can be affected by the pH of the medium in which the deprenyl is formulated. […] Therefore, when formulating a deprenyl compound in a pharmaceutical composition, it is preferred that the deprenyl compound be maintained at a suitable pH. In preferred embodiments, a pharmaceutical composition of the invention has a pH in the range of about 3 to about 5, more preferably about 3 to about 4. Furthermore, ethyl alcohol is a preferred solvent for improving stability of deprenyl. Thus, in certain embodiments, alcoholic or aqueous alcoholic media are preferred for the pharmaceutical compositions of the invention.

Sequence of GAPDH (P04406 whole entry, species assumed): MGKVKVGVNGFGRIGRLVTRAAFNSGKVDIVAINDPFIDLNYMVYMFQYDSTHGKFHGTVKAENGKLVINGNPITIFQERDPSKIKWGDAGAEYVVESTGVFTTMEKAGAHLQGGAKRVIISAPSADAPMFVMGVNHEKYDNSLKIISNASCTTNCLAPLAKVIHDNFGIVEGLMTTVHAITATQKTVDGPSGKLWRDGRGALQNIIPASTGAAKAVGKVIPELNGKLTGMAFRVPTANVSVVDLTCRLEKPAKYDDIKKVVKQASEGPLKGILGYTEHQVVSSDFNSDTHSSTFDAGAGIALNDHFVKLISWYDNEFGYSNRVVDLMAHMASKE

Structure (SMILES)	Effect on association of GAPDH monomers (tetrameric vs dimeric form) [1]	Percent Specific Lysis [2] [%]	Effect on CTL-mediated cell killing / lysis (in words) ([2]; huBLCL/env cells)	Effect on CTL-mediated cell killing / lysis (in words) [3]	Percent Specific Lysis [3] [%]	Effect on CTL-mediated cell killing / lysis (in words) [4]	Percent Specific Lysis [4] [%]	Effect on CTL-mediated cell killing / lysis (in words) [5]	Percent Specific Lysis [5] [%]	Stability depending on pH [6]
C#CCNC(C)Cc1ccccc1 (single isomer, unassigned; (-)) [Desm., (−)-desmethyldeprenyl]	inducing the conversion of GAPDH from the tetrameric form to the dimeric form	−1.85	reduced cell killing in all four cell lines	reduced cell killing in all four cell lines	4.34	reduced cell killing in all four cell lines	30.65	reduced cell killing in all four cell lines	6.98	
CC(=O)N[C@@H](CS)C(=O)O [NAC, N-acetyl cysteine]		13.41		effective in reducing lysis	6.32	effective in reducing lysis	30.74	effective in reducing lysis	29.12	
C#CCN(C)C(C)Cc1ccccc1 (stereo not drawn) [deprenyl, N,α-dimethyl-N-2-propynylphenethylamine]										more stable at a pH in the range of about 3-5 than at a pH of about 7
